Measurements from patent US11505536B2, “Dihydroorotate dehydrogenase inhibitors” (Janssen Biotech, Inc., priority 2019, dated 2022).

Experiments:
human DHODH = human DHODH (Homo sapiens (Human), UniProt Q02127); assay: DHODH Enzymatic Assay; format: biochemical; conditions: purified human DHODH, DCIP absorbance, end-point mode; read-out: hDHODH IC50
Outline: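 Purified human DHODH in […] HEPES pH 7.5, 150 mM NaCl, 0.5 mM EDTA, 0.1% Triton X-100; reaction started with substrate mix of 20 mM DHO, 5 mM CoQ6, 1 mM DCIP. End-point read as DCIP reduction (absorbance ~600 nm) after brequinar quench.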

[1] = test system: MOLM-13 cells (human acute myeloid leukemia cells); assay: MOLM-13 Cellular Assay; format: cell-based; conditions: 72 hours exposure, cell viability by CellTiter-Glo
Outline: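 MOLM-13 AML cells, seeded at 5,000/well in RPMI 1640 with 10% FBS, were treated with compounds right after seeding for 72 h at 37 °C, 5% CO2. Viability read by CellTiter-Glo luminescence.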

human DHODH, sequence (Q02127 whole entry): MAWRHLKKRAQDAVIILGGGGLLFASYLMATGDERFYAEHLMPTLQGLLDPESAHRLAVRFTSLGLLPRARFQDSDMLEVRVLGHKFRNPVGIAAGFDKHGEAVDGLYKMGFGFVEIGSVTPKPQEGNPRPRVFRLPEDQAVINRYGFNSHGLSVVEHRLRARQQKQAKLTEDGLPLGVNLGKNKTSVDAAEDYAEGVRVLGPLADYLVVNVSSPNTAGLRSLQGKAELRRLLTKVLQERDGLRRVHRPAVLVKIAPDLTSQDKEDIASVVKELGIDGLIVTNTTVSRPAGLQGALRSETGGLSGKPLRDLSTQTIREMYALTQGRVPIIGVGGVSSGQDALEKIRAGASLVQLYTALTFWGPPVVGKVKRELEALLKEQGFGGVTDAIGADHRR

| IC50 (human DHODH) | IC50 ([1]; Homo sapiens, MOLM-13, 72 h) | IC50 [1] | SMILES |
| --- | --- | --- | --- |
| 0.273 nM | 0.3 nM | – | CCn1c(CO)nn(-c2cc3c(C(C)C)cn(-c4c(F)ccc(OC)c4Cl)c(=O)c3cc2F)c1=O [Example 80, 2-(2-Chloro-6-fluoro-3-methoxyphenyl)-6-(4-ethyl-3-(hydroxymethyl)-5-oxo-4,5-dihydro-1H-1,2,4-triazol-1-yl)-7-fluoro-4-isopropylisoquinolin-1(2H)-one] |
| 0.226 nM | 0.3 nM | – | C=C(c1cn(-c2ccccc2C)c(=O)c2cc(F)c(-n3nc(CO)n(CC)c3=O)cc12)C(F)(F)F [Example 81, 6-(4-Ethyl-3-(hydroxymethyl)-5-oxo-4,5-dihydro-1H-1,2,4-triazol-1-yl)-7-fluoro-2-(o-tolyl)-4-(3,3,3-trifluoroprop-1-en-2-yl)isoquinolin-1(2H)-one] |
| 0.444 nM | ≤ 0.2 nM | 0.2 nM | C=C(C)c1cn(-c2ccccc2OC)c(=O)c2cc(F)c(-n3nc(CO)n(CC)c3=O)cc12 [Example 83, 6-(4-Ethyl-3-(hydroxymethyl)-5-oxo-4,5-dihydro-1H-1,2,4-triazol-1-yl)-7-fluoro-2-(2-methoxyphenyl)-4-(prop-1-en-2-yl)isoquinolin-1(2H)-one] |
| 6.58 nM | 70 nM | – | C=C(C)c1cn(-c2cc(C)cnc2Cl)c(=O)c2cc(F)c(-n3nc(CO)n(CC)c3=O)cc12 [Example 84, 2-(2-Chloro-5-methylpyridin-3-yl)-6-(4-ethyl-3-(hydroxymethyl)-5-oxo-4,5-dihydro-1H-1,2,4-triazol-1-yl)-7-fluoro-4-(prop-1-en-2-yl)isoquinolin-1(2H)-one] |
| 6.55 nM | 20 nM | – | C=C(C)c1cn(-c2cc(OC)ncc2F)c(=O)c2cc(F)c(-n3nc(CO)n(CC)c3=O)cc12 [Example 85, 6-(4-Ethyl-3-(hydroxymethyl)-5-oxo-4,5-dihydro-1H-1,2,4-triazol-1-yl)-7-fluoro-2-(5-fluoro-2-methoxypyridin-4-yl)-4-(prop-1-en-2-yl)isoquinolin-1(2H)-one] |
| 1.19 nM | 3 nM | – | C=C(C)c1cn(-c2cccc(F)c2C)c(=O)c2cc(F)c(-n3nc(CO)n(CC)c3=O)cc12 [Example 86, 6-(4-Ethyl-3-(hydroxymethyl)-5-oxo-4,5-dihydro-1H-1,2,4-triazol-1-yl)-7-fluoro-2-(3-fluoro-2-methylphenyl)-4-(prop-1-en-2-yl)isoquinolin-1(2H)-one] |
| 0.292 nM | 0.9 nM | – | C=C(C)c1cn(-c2cc(C)ccc2C)c(=O)c2cc(F)c(-n3nc(CO)n(CC)c3=O)cc12 [Example 87, 2-(2,5-Dimethylphenyl)-6-(4-ethyl-3-(hydroxymethyl)-5-oxo-4,5-dihydro-1H-1,2,4-triazol-1-yl)-7-fluoro-4-(prop-1-en-2-yl)isoquinolin-1(2H)-one] |
| 1.21 nM | 2 nM | – | CCc1ccccc1-n1cc(C(C)C)c2cc(-n3nc(CO)n(CC)c3=O)c(F)cc2c1=O [Example 89, 6-(4-Ethyl-3-(hydroxymethyl)-5-oxo-4,5-dihydro-1H-1,2,4-triazol-1-yl)-2-(2-ethylphenyl)-7-fluoro-4-isopropylisoquinolin-1(2H)-one] |
| 6.05 nM | 30 nM | – | CCn1c(CO)nn(-c2cc3c(C(C)C)cn(-c4cc(OC)ncc4F)c(=O)c3cc2F)c1=O [Example 91, 6-(4-Ethyl-3-(hydroxymethyl)-5-oxo-4,5-dihydro-1H-1,2,4-triazol-1-yl)-7-fluoro-2-(5-fluoro-2-methoxypyridin-4-yl)-4-isopropylisoquinolin-1(2H)-one] |
| 0.463 nM | 0.6 nM | – | [2H]C([2H])([2H])c1ccccc1-n1cc(C(C)C)c2cc(-n3nc(CO)n(CC)c3=O)c(F)cc2c1=O [Example 93, 6-(4-Ethyl-3-(hydroxymethyl)-5-oxo-4,5-dihydro-1H-1,2,4-triazol-1-yl)-7-fluoro-4-isopropyl-2-(2-(methyl-d3)phenyl)isoquinolin-1(2H)-one] |
